From US8921376B2, “Pyrrolopyridines useful as inhibitors of protein kinase” (Vertex Pharmaceuticals Incorporated, priority 2005, dated 2014)

Key:
Assay type in all cases: biochemical
JAK3 = target: T1, JAK3 (Homo sapiens, UniProt P52333); experiment: JAK3 inhibition assay (33P incorporation into poly(Glu)4Tyr); details: enzyme inhibition, Table 5
T1 sequence (P52333 1-1124): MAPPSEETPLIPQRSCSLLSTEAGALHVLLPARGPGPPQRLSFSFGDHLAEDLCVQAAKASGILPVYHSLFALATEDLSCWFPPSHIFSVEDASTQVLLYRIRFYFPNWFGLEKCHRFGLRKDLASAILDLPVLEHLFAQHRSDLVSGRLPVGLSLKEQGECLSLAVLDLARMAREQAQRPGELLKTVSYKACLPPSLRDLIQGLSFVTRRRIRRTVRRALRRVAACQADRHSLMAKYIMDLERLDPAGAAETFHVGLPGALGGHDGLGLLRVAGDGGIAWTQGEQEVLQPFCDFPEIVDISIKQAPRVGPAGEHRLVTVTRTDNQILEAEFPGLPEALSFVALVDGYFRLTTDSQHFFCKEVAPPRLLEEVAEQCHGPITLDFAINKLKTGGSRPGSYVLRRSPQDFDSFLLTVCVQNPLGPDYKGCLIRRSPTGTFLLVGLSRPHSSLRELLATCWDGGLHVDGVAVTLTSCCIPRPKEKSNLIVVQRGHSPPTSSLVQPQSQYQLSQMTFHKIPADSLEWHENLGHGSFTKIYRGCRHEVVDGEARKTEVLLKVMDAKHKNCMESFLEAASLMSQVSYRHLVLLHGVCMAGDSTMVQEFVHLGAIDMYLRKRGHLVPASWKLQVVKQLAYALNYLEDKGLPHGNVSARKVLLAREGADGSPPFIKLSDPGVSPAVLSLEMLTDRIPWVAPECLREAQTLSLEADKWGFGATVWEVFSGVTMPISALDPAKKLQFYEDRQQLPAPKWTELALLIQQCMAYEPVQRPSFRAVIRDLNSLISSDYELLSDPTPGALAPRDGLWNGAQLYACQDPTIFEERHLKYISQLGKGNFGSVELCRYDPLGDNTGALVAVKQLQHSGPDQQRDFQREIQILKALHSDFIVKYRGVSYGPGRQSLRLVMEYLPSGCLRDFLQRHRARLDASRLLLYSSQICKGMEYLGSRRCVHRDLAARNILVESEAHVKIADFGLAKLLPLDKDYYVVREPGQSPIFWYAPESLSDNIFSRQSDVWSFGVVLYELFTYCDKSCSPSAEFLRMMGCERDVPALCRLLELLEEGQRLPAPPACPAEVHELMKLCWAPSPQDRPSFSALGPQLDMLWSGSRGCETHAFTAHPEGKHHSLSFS
Experimental: (§1) Compounds were screened for their ability to inhibit JAK using the assay shown below. Reactions were carried out in a kinase buffer containing 100 mM HEPES (pH 7.4), 1 mM DTT, 10 mM MgCl2, 25 mM NaCl, and 0.01% BSA.
(§2) Substrate concentrations in the assay were 5 μM ATP (200 μCi/μmole ATP) and 1 μM poly(Glu)4Tyr. Reactions were carried out at 25° C. and 1 nM JAK3.
(§3) To each well of a 96 well polycarbonate plate was added 1.5 μl of a candidate JAK3 inhibitor along with 50/1 of kinase buffer containing 2 μM poly(Glu)4Tyr and 10 μM ATP. This was then mixed and 50 μl of kinase buffer containing 2 nM JAK3 enzyme was added to start the reaction. After 20 minutes at room temperature (25 C), the reaction was stopped with 50 μl of 20% trichloroacetic acid (TCA) that also contained 0.4 mM ATP. The entire contents of each well were then transferred to a 96 well glass fiber filter plate using a TomTek Cell Harvester. After washing, 60 μl of scintillation fluid was added and ^33P incorporation detected on a Perkin Elmer TopCount.

JAK2 = JAK2 (Homo sapiens, UniProt O60674); experiment: JAK2 inhibition assay (as Example 3 with JAK-2 enzyme); details: enzyme inhibition, Table 5
Sequence of JAK2 (O60674 whole entry): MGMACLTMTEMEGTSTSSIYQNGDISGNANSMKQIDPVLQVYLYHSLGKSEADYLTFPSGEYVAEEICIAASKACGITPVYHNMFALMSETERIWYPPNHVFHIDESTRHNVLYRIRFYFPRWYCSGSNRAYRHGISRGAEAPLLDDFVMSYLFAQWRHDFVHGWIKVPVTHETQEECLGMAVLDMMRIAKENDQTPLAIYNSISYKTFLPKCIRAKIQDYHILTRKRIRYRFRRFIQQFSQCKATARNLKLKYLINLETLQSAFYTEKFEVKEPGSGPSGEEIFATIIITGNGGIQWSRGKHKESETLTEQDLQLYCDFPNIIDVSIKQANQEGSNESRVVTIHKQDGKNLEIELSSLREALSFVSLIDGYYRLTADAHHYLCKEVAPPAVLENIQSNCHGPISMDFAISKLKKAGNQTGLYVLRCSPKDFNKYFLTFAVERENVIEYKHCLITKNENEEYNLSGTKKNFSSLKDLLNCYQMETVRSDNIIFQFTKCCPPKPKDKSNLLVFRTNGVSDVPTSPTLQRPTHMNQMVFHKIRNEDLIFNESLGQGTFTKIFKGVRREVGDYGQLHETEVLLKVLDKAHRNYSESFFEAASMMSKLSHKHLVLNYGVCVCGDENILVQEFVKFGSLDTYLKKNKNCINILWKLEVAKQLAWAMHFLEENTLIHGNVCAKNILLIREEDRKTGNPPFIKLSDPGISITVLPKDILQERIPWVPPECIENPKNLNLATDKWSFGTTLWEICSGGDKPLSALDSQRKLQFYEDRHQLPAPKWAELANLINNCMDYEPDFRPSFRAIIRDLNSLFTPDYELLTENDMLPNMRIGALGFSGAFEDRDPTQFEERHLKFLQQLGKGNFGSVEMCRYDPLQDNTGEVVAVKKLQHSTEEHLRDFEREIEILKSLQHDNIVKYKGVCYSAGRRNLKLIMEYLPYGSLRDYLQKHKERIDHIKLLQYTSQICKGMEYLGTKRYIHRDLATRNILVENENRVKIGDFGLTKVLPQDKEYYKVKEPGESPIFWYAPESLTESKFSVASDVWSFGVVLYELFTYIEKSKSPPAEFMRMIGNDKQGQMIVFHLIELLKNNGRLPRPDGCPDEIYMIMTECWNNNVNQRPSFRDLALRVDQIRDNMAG
Experimental: as §1, §2, §3
The assays were as described above in Example 3 except that JAK-2 enzyme was used, the final poly(Glu)4Tyr concentration was 15 μM, and final ATP concentration was 12 μM.

ROCK I = ROCK I (Homo sapiens, UniProt Q13464); experiment: ROCK-I inhibition assay (radioactive enzyme assay, MBP substrate); details: enzyme inhibition, Ki(app), Table 5
Sequence of ROCK I (Q13464 whole entry): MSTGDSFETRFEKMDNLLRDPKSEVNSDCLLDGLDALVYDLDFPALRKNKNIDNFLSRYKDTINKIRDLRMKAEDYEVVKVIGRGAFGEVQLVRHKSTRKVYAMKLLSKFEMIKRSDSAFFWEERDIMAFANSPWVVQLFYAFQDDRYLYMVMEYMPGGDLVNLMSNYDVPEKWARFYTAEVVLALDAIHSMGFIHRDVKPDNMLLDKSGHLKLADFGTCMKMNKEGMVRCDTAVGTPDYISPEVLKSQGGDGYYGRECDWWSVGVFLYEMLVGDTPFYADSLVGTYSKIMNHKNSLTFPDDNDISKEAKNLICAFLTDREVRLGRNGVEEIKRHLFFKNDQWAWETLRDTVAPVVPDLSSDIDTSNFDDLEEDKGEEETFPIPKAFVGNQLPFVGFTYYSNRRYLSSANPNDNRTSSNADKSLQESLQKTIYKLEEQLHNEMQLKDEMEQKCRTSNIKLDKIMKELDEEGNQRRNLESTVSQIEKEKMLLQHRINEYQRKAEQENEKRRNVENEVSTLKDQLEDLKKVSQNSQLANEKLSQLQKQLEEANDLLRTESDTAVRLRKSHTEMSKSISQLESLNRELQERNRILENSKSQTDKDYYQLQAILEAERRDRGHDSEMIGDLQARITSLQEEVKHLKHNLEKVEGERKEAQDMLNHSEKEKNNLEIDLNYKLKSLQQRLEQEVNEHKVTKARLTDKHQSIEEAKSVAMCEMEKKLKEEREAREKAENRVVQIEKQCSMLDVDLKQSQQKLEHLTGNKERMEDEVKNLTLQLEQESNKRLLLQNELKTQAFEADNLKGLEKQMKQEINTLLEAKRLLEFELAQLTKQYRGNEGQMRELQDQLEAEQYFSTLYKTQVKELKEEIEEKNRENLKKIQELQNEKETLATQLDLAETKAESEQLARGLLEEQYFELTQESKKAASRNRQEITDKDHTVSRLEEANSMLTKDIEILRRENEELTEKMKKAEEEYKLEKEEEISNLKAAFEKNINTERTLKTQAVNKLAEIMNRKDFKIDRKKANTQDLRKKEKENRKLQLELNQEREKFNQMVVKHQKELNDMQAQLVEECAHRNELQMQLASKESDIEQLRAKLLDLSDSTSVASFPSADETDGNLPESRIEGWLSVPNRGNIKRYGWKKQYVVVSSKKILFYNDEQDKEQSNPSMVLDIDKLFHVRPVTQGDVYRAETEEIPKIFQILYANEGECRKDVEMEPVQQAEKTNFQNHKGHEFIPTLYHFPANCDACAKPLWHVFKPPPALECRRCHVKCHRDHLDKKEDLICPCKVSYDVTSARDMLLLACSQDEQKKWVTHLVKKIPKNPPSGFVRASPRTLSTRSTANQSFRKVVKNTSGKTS
Experimental: Compounds were screened for their ability to inhibit ROCK using a standard radioactive enzyme assay. Assays were carried out in a solution containing 100 mM HEPES (pH 7.5), 10 mM MgCl2, 25 mM NaCl, 2 mM DTT, and 1.5% DMSO. Final substrate concentrations in the assay were 13 μM [γ-^33P] ATP (25 mCi ^33P ATP/mmol ATP, Perkin Elmer, Cambridge, Mass./Sigma Chemicals, St Louis, Mo.) and 27 μM Myelin Basic Protein (MBP). Final enzyme concentration in the assay was 5 nM ROCK. Assays were carried out at room temperature. 1.5 μl of DMSO stock containing serial dilutions of the compound of the present invention (concentrations ranging from 10 μM to 2.6 nM) was placed in a 96 well plate. 50 μl of Solution 1 (100 mM HEPES (pH 7.5), 10 mM MgCl2, […]) was added to the plate. The reaction was initiated by addition of 50 μl of Solution 2 (100 mM HEPES (pH 7.5), 10 mM MgCl2, 4 mM DTT, […] and 10 nM ROCK). After 2 hours the reaction was quenched with 50 μL of 30% trichloroacetic acid (TCA, Fisher) containing 9 mM ATP. Transfer of 140 μL of the quenched reaction to a glass fiber filter plate (Corning, Cat. No. 3511) was followed by washing 3 times with 5% TCA. 50 μl of Optima Gold scintillation fluid (Perkin Elmer) was added and the plates were counted on a Top Count (Perkin Elmer). After removing mean background values for all of the data points the data was fit using Prism software to obtain a Ki(app).

SMILES | Ki (JAK3) [nM] | Ki (JAK2) [nM] | Ki (ROCK I) [nM]
Clc1cnc2[nH]ccc2c1-c1cccc(N2CCCC2)n1 [compound 79, 5-Chloro-4-(6-(pyrrolidin-1-yl)pyridine-2-yl)-1H-pyrrolo[2,3-b]pyridine] | 500 to 5000 | 500 to 5000 | 500 to 5000
O=C(O)c1cc(-c2c(Cl)cnc3[nH]ccc23)c[nH]1 [compound 81, 4-(5-Chloro-1H-pyrrolo[2,3b]pyridin-4-yl)-1H-pyrrole-2-carboxylic acid] | < 500 | < 500 | 500 to 5000
CN(C)Cc1cccc(-c2ccnc3[nH]ccc23)c1 [compound 85, Dimethyl-[3-(1H-pyrrolo[2,3-b]pyridin-4-yl)-benzyl]-amine] | < 500 | 500 to 5000 | < 500
c1cc(CN2CCCCC2)cc(-c2ccnc3[nH]ccc23)c1 [compound 87, 4-(3-Piperidin-1-ylmethyl-phenyl)-1H-pyrrolo[2,3-b]pyridine] | 500 to 5000 | 500 to 5000 | 500 to 5000
c1cc(CN2CCOCC2)cc(-c2ccnc3[nH]ccc23)c1 [compound 88, 4-(3-Morpholin-4-ylmethyl-phenyl)-1H-pyrrolo[2,3-b]pyridine] | 500 to 5000 | 500 to 5000 | 500 to 5000
CN1CCN(Cc2cccc(-c3ccnc4[nH]ccc34)c2)CC1 [compound 89, 4-[3-(4-Methyl-piperazin-1-ylmethyl)-phenyl]-1H-pyrrolo[2,3-b]pyridine] | 500 to 5000 | 500 to 5000 | 500 to 5000
CN(C)C(=O)c1cccc(-c2ccnc3[nH]ccc23)c1 [compound 92, N,N-Dimethyl-3-(1H-pyrrolo[2,3-b]pyridin-4-yl)-benzamide] | 500 to 5000 | 500 to 5000 | 500 to 5000
O=C(c1cccc(-c2ccnc3[nH]ccc23)c1)N1CCCCC1 [compound 93, Piperidin-1-yl-[3-(1H-pyrrolo[2,3-b]pyridin-4-yl)-phenyl]-methanone] | 500 to 5000 | > 5000 | 500 to 5000

Now from value to molecule:

Ki (JAK3) [nM] | Ki (JAK2) [nM] | Ki (ROCK I) [nM] | SMILES
< 500 | < 500 | 500 to 5000 | Clc1cnc2[nH]ccc2c1-c1cn[nH]c1 [compound 80, 5-Chloro-4-(1H-pyrazol-4-yl)-1H-pyrrolo[2,3b]pyridine]
< 500 | < 500 | 500 to 5000 | Clc1cnc2[nH]ccc2c1-c1ccsc1 [compound 82, 5-Chloro-4-(thiophen-3-yl)-1H-pyrrolo[2,3b]pyridine]
< 500 | < 500 | 500 to 5000 | CN(C)CCN(C)c1cccc(-c2c(Cl)cnc3[nH]ccc23)n1 [compound 83]
500 to 5000 | 500 to 5000 | < 500 | CNCc1cccc(-c2ccnc3[nH]ccc23)c1 [compound 84, Methyl-[3-(1H-pyrrolo[2,3-b]pyridin-4-yl)-benzyl]-amine]
500 to 5000 | 500 to 5000 | < 500 | c1cc(CNC2CC2)cc(-c2ccnc3[nH]ccc23)c1 [compound 86, Cyclopropyl-[3-(1H-pyrrolo[2,3-b]pyridin-4-yl)-benzyl]-amine]
< 500 | < 500 | 500 to 5000 | CC1CC=C(c2c(Cl)cnc3[nH]ccc23)C1C (stereo not drawn) [compound 90]
500 to 5000 | 500 to 5000 | 500 to 5000 | CNC(=O)c1cccc(-c2ccnc3[nH]ccc23)c1 [compound 91, N-Methyl-3-(1H-pyrrolo[2,3-b]pyridin-4-yl)-benzamide]
